Data reported in ChEMBL document CHEMBL4507264, “Data for DCP probe BAY-7598” (2021).

Tests used:
[1] = tested on: Mast/stem cell growth factor receptor Kit (Homo sapiens), P10721 [V559D,T670I]; details: Compound concentration 1000.0 nM
[2] = tested on: eIF-2-alpha kinase GCN2 (Homo sapiens), Q9P2K8 [S808G]; details: Compound concentration 1000.0 nM
[3] = target: Serine/threonine-protein kinase Sgk1 (Homo sapiens) (UniProt O00141); details: Compound concentration 1000.0 nM
[4] = target: Tyrosine-protein kinase Blk (Homo sapiens) (UniProt P51451); details: Compound concentration 1000.0 nM
[5] = target: Cyclin-dependent kinase 18 (Homo sapiens) (UniProt Q07002); details: Compound concentration 1000.0 nM
[6] = target: Vascular endothelial growth factor receptor 3 (Homo sapiens) (UniProt P35916); details: Compound concentration 1000.0 nM
[7] = target: RAC-beta serine/threonine-protein kinase (Homo sapiens) (UniProt P31751); details: Compound concentration 1000.0 nM
[8] = target: Mitogen-activated protein kinase kinase kinase 9 (Homo sapiens) (UniProt P80192); details: Compound concentration 1000.0 nM
[9] = target: Tyrosine-protein kinase ABL1 (Homo sapiens) (UniProt P00519); details: Compound concentration 1000.0 nM
[10] = tested on: Proto-oncogene tyrosine-protein kinase receptor Ret (Homo sapiens), P07949 [V804L]; details: Compound concentration 1000.0 nM
[11] = target: Calcium/calmodulin-dependent protein kinase kinase 2 (Homo sapiens) (UniProt Q96RR4); details: Compound concentration 1000.0 nM
[12] = target: Serine/threonine-protein kinase Sgk2 (Homo sapiens) (UniProt Q9HBY8); details: Compound concentration 1000.0 nM
[13] = target: Non-receptor tyrosine-protein kinase TYK2 (Homo sapiens) (UniProt P29597); details: Compound concentration 1000.0 nM
[14] = target: Receptor tyrosine-protein kinase erbB-3 (Homo sapiens) (UniProt P21860); details: Compound concentration 1000.0 nM
[15] = target: NUAK family SNF1-like kinase 2 (Homo sapiens) (UniProt Q9H093); details: Compound concentration 1000.0 nM
[16] = target: Phosphatidylinositol 4-phosphate 5-kinase type-1 alpha (Homo sapiens) (UniProt Q99755); details: Compound concentration 1000.0 nM
[17] = target: MAP kinase-activated protein kinase 2 (Homo sapiens) (UniProt P49137); details: Compound concentration 1000.0 nM
[18] = target: TGF-beta receptor type-2 (Homo sapiens) (UniProt P37173); details: Compound concentration 1000.0 nM
[19] = target: Phosphatidylinositol 4,5-bisphosphate 3-kinase catalytic subunit alpha isoform (Homo sapiens) (UniProt P42336); details: Compound concentration 1000.0 nM
[20] = target: Tyrosine-protein kinase receptor TYRO3 (Homo sapiens) (UniProt Q06418); details: Compound concentration 1000.0 nM
[21] = target: Calcium/calmodulin-dependent protein kinase type 1G (Homo sapiens) (UniProt Q96NX5); details: Compound concentration 1000.0 nM
[22] = target: D(1B) dopamine receptor (Homo sapiens) (UniProt P21918); details: Compound concentration 10.0 uM
[23] = target: Ribosomal protein S6 kinase alpha-3 (Homo sapiens) (UniProt P51812); details: Compound concentration 1000.0 nM
[24] = target: Calcium/calmodulin-dependent protein kinase type II subunit gamma (Homo sapiens) (UniProt Q13555); details: Compound concentration 1000.0 nM
[25] = target: Serine/threonine-protein kinase 36 (Homo sapiens) (UniProt Q9NRP7); details: Compound concentration 1000.0 nM
[26] = target: Proto-oncogene tyrosine-protein kinase Src (Homo sapiens) (UniProt P12931); details: Compound concentration 1000.0 nM
[27] = target: Cyclin-dependent kinase-like 2 (Homo sapiens) (UniProt Q92772); details: Compound concentration 1000.0 nM
[28] = target: Kappa-type opioid receptor (Homo sapiens) (UniProt P41145); details: Compound concentration 10.0 uM
[29] = target: AP2-associated protein kinase 1 (Homo sapiens) (UniProt Q2M2I8); details: Compound concentration 1000.0 nM
[30] = target: Macrophage-stimulating protein receptor (Homo sapiens) (UniProt Q04912); details: Compound concentration 1000.0 nM
[31] = target: Serine/threonine-protein kinase DCLK1 (Homo sapiens) (UniProt O15075); details: Compound concentration 1000.0 nM
[32] = target: Receptor tyrosine-protein kinase erbB-2 (Homo sapiens) (UniProt P04626); details: Compound concentration 1000.0 nM
[33] = target: Phosphorylase b kinase gamma catalytic chain, skeletal muscle/heart isoform (Homo sapiens) (UniProt Q16816); details: Compound concentration 1000.0 nM
[34] = tested on: Receptor-type tyrosine-protein kinase FLT3 (Homo sapiens), P36888 [N841I]; details: Compound concentration 1000.0 nM
[35] = target: Ephrin type-B receptor 6 (Homo sapiens) (UniProt O15197); details: Compound concentration 1000.0 nM
[36] = target: 5-hydroxytryptamine receptor 6 (Homo sapiens) (UniProt P50406); details: Compound concentration 10.0 uM
[37] = target: Cyclin-dependent kinase 3 (Homo sapiens) (UniProt Q00526); details: Compound concentration 1000.0 nM
[38] = target: BMP-2-inducible protein kinase (Homo sapiens) (UniProt Q9NSY1); details: Compound concentration 1000.0 nM
[39] = target: Casein kinase I isoform gamma-2 (Homo sapiens) (UniProt P78368); details: Compound concentration 1000.0 nM
[40] = target: 5-hydroxytryptamine receptor 2C (Homo sapiens) (UniProt P28335); details: Compound concentration 10.0 uM
[41] = target: Serine/threonine-protein kinase D1 (Homo sapiens) (UniProt Q15139); details: Compound concentration 1000.0 nM
[42] = target: Serine/threonine-protein kinase PAK 3 (Homo sapiens) (UniProt O75914); details: Compound concentration 1000.0 nM
[43] = target: Tyrosine-protein kinase Fyn (Homo sapiens) (UniProt P06241); details: Compound concentration 1000.0 nM
[44] = target: Angiopoietin-1 receptor (Homo sapiens) (UniProt Q02763); details: Compound concentration 1000.0 nM
[45] = target: Serine/threonine-protein kinase PAK 5 (Homo sapiens) (UniProt Q9P286); details: Compound concentration 1000.0 nM

Sequence of eIF-2-alpha kinase GCN2 (Homo sapiens), Q9P2K8 [S808G] (Q9P2K8 whole entry S808G): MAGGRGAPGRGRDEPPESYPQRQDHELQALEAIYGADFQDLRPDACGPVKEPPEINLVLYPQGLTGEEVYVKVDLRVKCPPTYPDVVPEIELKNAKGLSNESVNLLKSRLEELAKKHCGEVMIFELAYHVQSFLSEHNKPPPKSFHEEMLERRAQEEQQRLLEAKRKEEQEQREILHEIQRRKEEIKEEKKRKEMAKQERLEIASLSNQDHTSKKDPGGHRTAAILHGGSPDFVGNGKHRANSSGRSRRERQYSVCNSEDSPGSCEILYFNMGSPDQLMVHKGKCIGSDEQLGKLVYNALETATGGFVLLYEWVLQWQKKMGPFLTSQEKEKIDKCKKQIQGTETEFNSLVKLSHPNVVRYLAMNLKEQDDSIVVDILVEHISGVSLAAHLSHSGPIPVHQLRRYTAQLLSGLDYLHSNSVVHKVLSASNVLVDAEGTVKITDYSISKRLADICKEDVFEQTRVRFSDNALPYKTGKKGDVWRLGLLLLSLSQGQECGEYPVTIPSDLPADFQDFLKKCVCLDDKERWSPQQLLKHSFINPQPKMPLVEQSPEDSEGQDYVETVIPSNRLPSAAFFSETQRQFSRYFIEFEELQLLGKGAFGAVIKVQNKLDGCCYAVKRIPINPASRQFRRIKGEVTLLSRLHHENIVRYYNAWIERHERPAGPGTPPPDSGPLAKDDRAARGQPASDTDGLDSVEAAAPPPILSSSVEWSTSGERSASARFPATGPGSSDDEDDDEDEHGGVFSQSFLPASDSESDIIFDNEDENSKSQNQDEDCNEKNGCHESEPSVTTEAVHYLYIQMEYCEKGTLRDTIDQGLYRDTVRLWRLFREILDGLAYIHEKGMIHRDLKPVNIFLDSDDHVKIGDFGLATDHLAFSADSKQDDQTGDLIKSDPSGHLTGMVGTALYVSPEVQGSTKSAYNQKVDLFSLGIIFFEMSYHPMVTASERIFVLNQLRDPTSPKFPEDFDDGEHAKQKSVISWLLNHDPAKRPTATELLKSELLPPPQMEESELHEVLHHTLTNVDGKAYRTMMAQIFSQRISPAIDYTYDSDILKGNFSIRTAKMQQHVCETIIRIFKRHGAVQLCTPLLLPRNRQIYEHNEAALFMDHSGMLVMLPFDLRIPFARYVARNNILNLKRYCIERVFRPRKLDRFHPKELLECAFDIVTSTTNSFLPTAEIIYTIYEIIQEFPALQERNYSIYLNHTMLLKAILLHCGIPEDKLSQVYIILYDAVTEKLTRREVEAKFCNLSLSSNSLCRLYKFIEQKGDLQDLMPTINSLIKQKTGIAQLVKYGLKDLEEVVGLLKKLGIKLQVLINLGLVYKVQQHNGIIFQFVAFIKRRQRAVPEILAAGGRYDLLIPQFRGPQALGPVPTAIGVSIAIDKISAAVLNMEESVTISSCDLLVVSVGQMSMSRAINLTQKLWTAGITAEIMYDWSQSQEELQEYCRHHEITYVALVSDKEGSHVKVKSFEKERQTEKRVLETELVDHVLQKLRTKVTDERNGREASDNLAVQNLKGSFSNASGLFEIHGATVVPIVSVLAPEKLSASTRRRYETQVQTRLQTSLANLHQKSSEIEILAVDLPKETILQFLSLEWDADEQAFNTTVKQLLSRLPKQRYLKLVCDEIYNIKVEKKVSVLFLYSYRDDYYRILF
Sequence of Tyrosine-protein kinase receptor TYRO3 (Homo sapiens) (Q06418 whole entry): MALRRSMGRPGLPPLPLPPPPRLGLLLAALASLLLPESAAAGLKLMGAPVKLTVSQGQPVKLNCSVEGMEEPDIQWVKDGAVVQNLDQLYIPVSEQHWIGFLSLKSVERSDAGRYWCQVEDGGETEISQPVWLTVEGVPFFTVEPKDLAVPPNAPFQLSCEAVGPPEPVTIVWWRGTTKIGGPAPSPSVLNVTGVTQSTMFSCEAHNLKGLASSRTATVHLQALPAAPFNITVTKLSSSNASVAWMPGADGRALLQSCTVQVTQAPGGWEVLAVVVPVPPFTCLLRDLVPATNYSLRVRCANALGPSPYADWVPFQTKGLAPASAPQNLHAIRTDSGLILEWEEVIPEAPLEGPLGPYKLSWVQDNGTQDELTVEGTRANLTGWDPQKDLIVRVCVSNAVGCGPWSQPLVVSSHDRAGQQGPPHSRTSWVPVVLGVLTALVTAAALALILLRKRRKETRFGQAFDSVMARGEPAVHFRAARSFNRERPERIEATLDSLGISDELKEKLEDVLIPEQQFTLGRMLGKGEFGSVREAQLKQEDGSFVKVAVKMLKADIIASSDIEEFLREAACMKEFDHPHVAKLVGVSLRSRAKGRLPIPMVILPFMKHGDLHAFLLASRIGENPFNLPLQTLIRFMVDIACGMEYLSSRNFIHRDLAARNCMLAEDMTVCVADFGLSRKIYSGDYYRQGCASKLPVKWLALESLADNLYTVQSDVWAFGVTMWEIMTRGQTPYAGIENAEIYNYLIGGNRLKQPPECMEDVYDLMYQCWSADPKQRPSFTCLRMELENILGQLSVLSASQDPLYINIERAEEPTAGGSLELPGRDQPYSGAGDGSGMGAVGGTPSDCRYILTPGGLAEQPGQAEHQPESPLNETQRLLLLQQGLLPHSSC
Sequence of Macrophage-stimulating protein receptor (Homo sapiens) (Q04912 25-304 limits assumed): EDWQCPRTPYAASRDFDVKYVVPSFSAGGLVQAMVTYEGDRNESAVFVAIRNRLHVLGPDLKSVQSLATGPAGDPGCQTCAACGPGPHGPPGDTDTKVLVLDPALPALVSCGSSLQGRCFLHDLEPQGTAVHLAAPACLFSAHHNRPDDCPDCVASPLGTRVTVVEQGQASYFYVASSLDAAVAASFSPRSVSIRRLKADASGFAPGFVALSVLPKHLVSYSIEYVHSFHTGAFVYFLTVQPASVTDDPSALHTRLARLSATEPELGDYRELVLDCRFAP
Sequence of Macrophage-stimulating protein receptor (Homo sapiens) (Q04912 310-1400 limits assumed): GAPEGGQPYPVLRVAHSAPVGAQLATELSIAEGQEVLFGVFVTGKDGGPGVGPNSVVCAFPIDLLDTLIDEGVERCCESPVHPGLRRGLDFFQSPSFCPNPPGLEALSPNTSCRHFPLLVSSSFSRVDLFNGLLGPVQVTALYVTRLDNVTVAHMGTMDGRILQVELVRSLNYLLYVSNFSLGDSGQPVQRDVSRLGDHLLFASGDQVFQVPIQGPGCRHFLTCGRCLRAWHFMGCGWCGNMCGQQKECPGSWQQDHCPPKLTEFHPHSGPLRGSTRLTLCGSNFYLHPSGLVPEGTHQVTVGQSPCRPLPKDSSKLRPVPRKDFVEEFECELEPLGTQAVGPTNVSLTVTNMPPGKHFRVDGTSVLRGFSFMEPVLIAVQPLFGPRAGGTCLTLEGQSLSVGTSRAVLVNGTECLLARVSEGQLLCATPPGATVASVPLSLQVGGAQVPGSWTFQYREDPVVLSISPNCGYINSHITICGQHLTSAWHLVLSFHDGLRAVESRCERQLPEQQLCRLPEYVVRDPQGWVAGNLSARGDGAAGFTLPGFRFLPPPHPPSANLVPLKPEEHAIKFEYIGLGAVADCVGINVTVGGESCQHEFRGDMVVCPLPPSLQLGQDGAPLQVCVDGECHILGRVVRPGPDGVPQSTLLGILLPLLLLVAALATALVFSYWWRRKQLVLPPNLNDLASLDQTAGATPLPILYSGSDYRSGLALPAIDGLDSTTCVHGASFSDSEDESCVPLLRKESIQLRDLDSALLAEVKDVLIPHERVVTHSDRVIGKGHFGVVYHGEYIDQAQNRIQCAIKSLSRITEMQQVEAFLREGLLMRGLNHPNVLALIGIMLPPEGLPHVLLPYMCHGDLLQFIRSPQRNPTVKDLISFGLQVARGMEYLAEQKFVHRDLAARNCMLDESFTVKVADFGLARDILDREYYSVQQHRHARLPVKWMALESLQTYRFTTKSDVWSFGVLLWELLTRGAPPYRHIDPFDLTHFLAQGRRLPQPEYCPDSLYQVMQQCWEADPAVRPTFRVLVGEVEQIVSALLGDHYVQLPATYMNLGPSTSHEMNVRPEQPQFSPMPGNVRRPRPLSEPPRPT
Sequence of Serine/threonine-protein kinase D1 (Homo sapiens) (Q15139 whole entry): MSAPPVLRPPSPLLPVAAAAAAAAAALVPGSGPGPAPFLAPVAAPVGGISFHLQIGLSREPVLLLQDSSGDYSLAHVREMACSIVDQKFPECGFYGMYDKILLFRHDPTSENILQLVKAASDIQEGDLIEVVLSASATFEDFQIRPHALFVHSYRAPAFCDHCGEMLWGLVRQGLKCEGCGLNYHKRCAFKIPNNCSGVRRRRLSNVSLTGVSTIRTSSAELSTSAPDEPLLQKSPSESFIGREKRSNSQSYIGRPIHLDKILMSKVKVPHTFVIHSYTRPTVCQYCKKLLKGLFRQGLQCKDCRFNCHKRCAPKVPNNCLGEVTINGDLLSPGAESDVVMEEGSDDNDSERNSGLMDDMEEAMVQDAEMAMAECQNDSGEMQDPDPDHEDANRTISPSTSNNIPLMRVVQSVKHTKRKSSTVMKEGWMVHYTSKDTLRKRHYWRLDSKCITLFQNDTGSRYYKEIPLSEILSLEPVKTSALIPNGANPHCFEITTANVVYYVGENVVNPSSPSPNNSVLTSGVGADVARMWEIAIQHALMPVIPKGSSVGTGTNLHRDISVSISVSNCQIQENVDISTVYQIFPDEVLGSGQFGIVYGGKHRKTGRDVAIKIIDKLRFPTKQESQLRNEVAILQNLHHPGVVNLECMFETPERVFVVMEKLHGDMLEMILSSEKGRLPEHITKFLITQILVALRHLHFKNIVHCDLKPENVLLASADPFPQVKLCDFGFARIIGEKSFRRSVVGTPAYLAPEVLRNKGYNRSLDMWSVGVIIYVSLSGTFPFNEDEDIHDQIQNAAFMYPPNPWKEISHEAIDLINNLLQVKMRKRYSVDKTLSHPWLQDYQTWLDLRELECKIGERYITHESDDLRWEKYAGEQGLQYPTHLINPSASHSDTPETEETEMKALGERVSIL

O=C(O)[C@@H]1[C@@H](Cn2nnc3ccccc3c2=O)CC[C@H]1C(=O)c1ccc(OCCC2CCOCC2)cc1 [BAY-694]
inactive: residual activity [1] 98% | residual activity [2] 100% | residual activity [3] 74% | residual activity [4] 95% | residual activity [5] 90% | residual activity [6] 100% | residual activity [7] 100% | residual activity [8] 100% | residual activity [9] 95% | residual activity [10] 94% | residual activity [11] 100% | residual activity [12] 79% | residual activity [13] 100% | residual activity [14] 94% | residual activity [15] 100% | residual activity [16] 94% | residual activity [17] 100% | residual activity [18] 100% | residual activity [19] 100% | residual activity [20] 100% | residual activity [21] 100% | inhibition [22] 19.6% | residual activity [23] 85% | residual activity [24] 100% | residual activity [25] 91% | residual activity [26] 89% | residual activity [27] 73% | inhibition [28] 8.5% | residual activity [29] 100% | residual activity [30] 91% | residual activity [31] 100% | residual activity [32] 100% | residual activity [33] 100% | residual activity [34] 98% | residual activity [35] 100% | inhibition [36] 26.9% | residual activity [37] 100% | residual activity [38] 100% | residual activity [39] 100% | inhibition [40] 21% | residual activity [41] 100% | residual activity [42] 99% | residual activity [43] 76% | residual activity [44] 100% | residual activity [45] 96%

O=C(O)[C@H]1[C@H](Cn2nnc3ccccc3c2=O)CC[C@@H]1C(=O)c1ccc(OCCC2CCOCC2)cc1 [BAY-7598]
inactive: residual activity [1] 69% | residual activity [2] 55% | residual activity [3] 100% | residual activity [4] 100% | residual activity [5] 84% | residual activity [6] 81% | residual activity [7] 88% | residual activity [8] 81% | residual activity [9] 80% | residual activity [10] 77% | residual activity [11] 90% | residual activity [12] 92% | residual activity [13] 100% | residual activity [14] 69% | residual activity [15] 100% | residual activity [16] 88% | residual activity [17] 89% | residual activity [18] 100% | residual activity [19] 100% | residual activity [20] 100% | residual activity [21] 90% | inhibition [22] 7.53% | residual activity [23] 83% | residual activity [24] 90% | residual activity [25] 100% | residual activity [26] 89% | residual activity [27] 97% | inhibition [28] -3.04% | residual activity [29] 78% | residual activity [30] 96% | residual activity [31] 73% | residual activity [32] 100% | residual activity [33] 74% | residual activity [34] 85% | residual activity [35] 89% | inhibition [36] 16.6% | residual activity [37] 100% | residual activity [38] 86% | residual activity [39] 87% | inhibition [40] 22.4% | residual activity [41] 85% | residual activity [42] 86% | residual activity [43] 100% | residual activity [44] 86% | residual activity [45] 98%
